From the supplement of paper PMC11061612

Legend:
[1] = system: CCK-81 (Colorectal Carcinoma); test: combination Emax (second highest fraction inhibited in the dose matrix, 72 h); higher = more inhibition; extreme values may be limits of the assay
Procedure, shortened: (§1)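 Cell lines in DMEM/F12 or RPMI with 10% FBS were plated in 1536-well plates, held 24 hours at 37°C, 5% CO2, then given two-drug dose matrices for 72 hours (DMSO typically 0.2%). Viability was read by CellTiter-Glo 2.0 luminescence and scaled as inhibition from 0 (vehicle wells) to 1 (blank wells). Combination Emax is the second-highest inhibition in the matrix; Bliss excess is observed combination effect minus expected EA + EB − EA·EB, EA and EB being single-agent effects.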

[2] = system: FU97 (Gastric Carcinoma); test: as above
Procedure, shortened: as §1

[3] = system: NCI-H1666 (Lung Adenocarcinoma); test: as above
Procedure, shortened: as §1

[4] = system: IGR-37 (Melanoma); test: as above
Procedure, shortened: as §1

[5] = system: BICR22 (Oral Cavity Carcinoma); test: as above
Procedure, shortened: as §1

[6] = system: COLO-320-HSR (Colorectal Carcinoma); test: as above
Procedure, shortened: as §1

[7] = system: NCI-H1581 (Non-Small Cell Lung Carcinoma); test: as above
Procedure, shortened: as §1

[8] = system: ECC10 (Gastric Carcinoma); test: as above
Procedure, shortened: as §1

[9] = system: VCaP (Prostate Carcinoma); test: as above
Procedure, shortened: as §1

[10] = system: U-2-OS (Osteosarcoma); test: as above
Procedure, shortened: as §1

[11] = system: CAPAN-2 (Pancreatic Carcinoma); test: as above
Procedure, shortened: as §1

[12] = system: PANC-10-05 (Pancreatic Carcinoma); test: as above
Procedure, shortened: as §1

[13] = system: ONS-76 (Other Solid Carcinomas); test: as above
Procedure, shortened: as §1

[14] = system: KARPAS-422 (B-Cell Non-Hodgkin's Lymphoma); test: as above
Procedure, shortened: as §1

[15] = system: NCI-H64 (Small Cell Lung Carcinoma); test: as above
Procedure, shortened: as §1

[16] = system: TT (Thyroid Gland Carcinoma); test: as above
Procedure, shortened: as §1

[17] = system: NCI-H2066 (Squamous Cell Lung Carcinoma); test: as above
Procedure, shortened: as §1

[18] = system: NY (Osteosarcoma); test: as above
Procedure, shortened: as §1

[19] = system: CCK-81 (Colorectal Carcinoma); test: Bliss excess, mean over the matrix (fraction); higher = more synergy
Procedure, shortened: as §1

[20] = system: FU97 (Gastric Carcinoma); test: as above
Procedure, shortened: as §1

[21] = system: NCI-H1666 (Lung Adenocarcinoma); test: as above
Procedure, shortened: as §1

[22] = system: IGR-37 (Melanoma); test: as above
Procedure, shortened: as §1

[23] = system: BICR22 (Oral Cavity Carcinoma); test: as above
Procedure, shortened: as §1

[24] = system: COLO-320-HSR (Colorectal Carcinoma); test: as above
Procedure, shortened: as §1

[25] = system: NCI-H1581 (Non-Small Cell Lung Carcinoma); test: as above
Procedure, shortened: as §1

[26] = system: ECC10 (Gastric Carcinoma); test: as above
Procedure, shortened: as §1

[27] = system: VCaP (Prostate Carcinoma); test: as above
Procedure, shortened: as §1

[28] = system: U-2-OS (Osteosarcoma); test: as above
Procedure, shortened: as §1

[29] = system: CAPAN-2 (Pancreatic Carcinoma); test: as above
Procedure, shortened: as §1

[30] = system: PANC-10-05 (Pancreatic Carcinoma); test: as above
Procedure, shortened: as §1

[31] = system: ONS-76 (Other Solid Carcinomas); test: as above
Procedure, shortened: as §1

[32] = system: KARPAS-422 (B-Cell Non-Hodgkin's Lymphoma); test: as above
Procedure, shortened: as §1

[33] = system: NCI-H64 (Small Cell Lung Carcinoma); test: as above
Procedure, shortened: as §1

[34] = system: TT (Thyroid Gland Carcinoma); test: as above
Procedure, shortened: as §1

[35] = system: NCI-H2066 (Squamous Cell Lung Carcinoma); test: as above
Procedure, shortened: as §1

[36] = system: NY (Osteosarcoma); test: as above
Procedure, shortened: as §1
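Throughout, for Bliss excess, mean over the matrix: after 72 h of two-drug dosing.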

In the case of N#Cc1cnc(Nc2cc(NC[C@H]3CNCCO3)c(C(F)(F)F)cn2)cn1 [SRA737] + Nc1ccn([C@@H]2O[C@H](CO)[C@@H](O)C2(F)F)c(=O)n1 [Gemcitabine] (first compound max 10 µM, 7x7, partner max 0.3 µM), the “combination Emax” value [1] is reported as 0.859, the “combination Emax” value [2] is reported as 0.318 and the “combination Emax” value [3] is reported as 0.54. For the same compound, the “combination Emax” value [4] was 0.782, the “combination Emax” value [5] was 0.946 and the “combination Emax” value [6] was 0.815. For the same compound, the “combination Emax” value [7] was 0.957, the “combination Emax” value [8] was 0.859 and the “combination Emax” value [9] was 0.77. The “combination Emax” value [10] was 0.829, the “combination Emax” value [11] was 0.319 and the “combination Emax” value [12] was 0.584. For the same compound, the “combination Emax” value [13] was 0.811, the “combination Emax” value [14] was 0.852 and the “combination Emax” value [15] was 0.863. For the same compound, the “combination Emax” value [16] was 0.469, the “combination Emax” value [17] was 0.208 and the “combination Emax” value [18] was 0.808. The Bliss excess [19] was -0.0976, the Bliss excess [20] was -0.0494 and the Bliss excess [21] was 0.0128. For the same compound, the Bliss excess [22] was -0.09, the Bliss excess [23] was 0.0636 and the Bliss excess [24] was 0.0911. For the same compound, the Bliss excess [25] was 0.176, the Bliss excess [26] was 0.0624 and the Bliss excess [27] was -0.0259. It also gave a Bliss excess [28] of 0.051, a Bliss excess [29] of 0.0141 and a Bliss excess [30] of 0.0598. For the same compound, the Bliss excess [31] was -0.0843, the Bliss excess [32] was 0.0409 and the Bliss excess [33] was 0.0476. For the same compound, the Bliss excess [34] was -0.0551, the Bliss excess [35] was -0.0332 and the Bliss excess [36] was -0.0439.

With O=C(c1cc(Cc2n[nH]c(=O)c3ccccc23)ccc1F)N1CCN(C(=O)C2CC2)CC1 [Olaparib] + CC1(C)CCC(CN2CCN(c3ccc(C(=O)NS(=O)(=O)c4ccc(NCC5CCOCC5)c([N+](=O)[O-])c4)c(Oc4cnc5[nH]ccc5c4)c3)CC2)=C(c2ccc(Cl)cc2)C1 [Venetoclax] (first compound max 10 µM, 7x7, partner max 1 µM) the “combination Emax” value [1] was 0.148, the “combination Emax” value [2] was 0.104 and the “combination Emax” value [3] was 0.104. The “combination Emax” value [4] was 0.3, the “combination Emax” value [5] was 0.0823 and the “combination Emax” value [6] was 0.176. The “combination Emax” value [7] was 0.234, the “combination Emax” value [8] was 0.706 and the “combination Emax” value [9] was 0.101. For the same compound, the “combination Emax” value [10] was 0.109, the “combination Emax” value [11] was 0.0502 and the “combination Emax” value [12] was 0.125. For the same compound, the “combination Emax” value [13] was 0.17, the “combination Emax” value [14] was 0.611 and the “combination Emax” value [15] was 0.166. The “combination Emax” value [16] was 0.208, the “combination Emax” value [17] was 0.136 and the “combination Emax” value [18] was 0.188. It also gave a Bliss excess [19] of -0.0382, a Bliss excess [20] of -0.0322 and a Bliss excess [21] of -0.0661. The Bliss excess [22] was 0.0143, the Bliss excess [23] was -0.0428 and the Bliss excess [24] was 0.0038. The Bliss excess [25] was -0.0035, the Bliss excess [26] was 0.0155 and the Bliss excess [27] was -0.0434. The Bliss excess [28] was -0.0331, the Bliss excess [29] was -0.0398 and the Bliss excess [30] was -0.059. For the same compound, the Bliss excess [31] was -0.014, the Bliss excess [32] was 0.0071 and the Bliss excess [33] was 0.0167. The Bliss excess [34] was -0.0158, the Bliss excess [35] was -0.0521 and the Bliss excess [36] was 0.0029.

With C=CCn1c(=O)c2cnc(Nc3ccc(N4CCN(C)CC4)cc3)nc2n1-c1cccc(C(C)(C)O)n1 [AZD1775] + Nc1ccn([C@@H]2O[C@H](CO)[C@@H](O)C2(F)F)c(=O)n1 [Gemcitabine] (first compound max 1 µM, partner max 0.3 µM) the “combination Emax” value [1] was 0.81, the “combination Emax” value [2] was 0.362 and the “combination Emax” value [3] was 0.46. For the same compound, the “combination Emax” value [4] was 0.674, the “combination Emax” value [5] was 0.943 and the “combination Emax” value [6] was 0.811. The “combination Emax” value [7] was 0.948, the “combination Emax” value [8] was 0.821 and the “combination Emax” value [9] was 0.839. For the same compound, the “combination Emax” value [10] was 0.724, the “combination Emax” value [11] was 0.43 and the “combination Emax” value [12] was 0.631. For the same compound, the “combination Emax” value [13] was 0.559, the “combination Emax” value [14] was 0.847 and the “combination Emax” value [15] was 0.905. For the same compound, the “combination Emax” value [16] was 0.486, the “combination Emax” value [17] was 0.217 and the “combination Emax” value [18] was 0.7. It also gave a Bliss excess [19] of -0.0665, a Bliss excess [20] of -0.0313 and a Bliss excess [21] of -0.0561. It also gave a Bliss excess [22] of -0.0346, a Bliss excess [23] of -0.0077 and a Bliss excess [24] of 0.0066. It also gave a Bliss excess [25] of 0.124, a Bliss excess [26] of 0.0012 and a Bliss excess [27] of -0.0094. The Bliss excess [28] was 0.029, the Bliss excess [29] was -0.065 and the Bliss excess [30] was -0.0504. The Bliss excess [31] was -0.0804, the Bliss excess [32] was -0.0482 and the Bliss excess [33] was -0.0098. For the same compound, the Bliss excess [34] was -0.0228, the Bliss excess [35] was -0.0678 and the Bliss excess [36] was -0.0595.
